The target in assay [1] is T1, InsP3Kinase-A (Homo sapiens, UniProt P23677). Kind of assay: biochemical. Further details: gene ITPKA; full-length GST-InsP3Kinase-A. To be noted: ADP-Glo, 5 uM compound, normalized to positive control. As to the method:
For the inhibitor screening, the compounds were diluted in dimethylsulfoxide (DMSO, Sigma), and a final compound concentration of 5 µM was applied to each well. Each measurement was performed in triplicates. As controls, a positive control (enzyme solution with InsP3Kinase and without compounds, but with DMSO), a negative control (enzyme buffer without InsP3Kinase), and an inhibitor control (quercetin and BIP-4) were applied. In each well, there was a final buffer concentration of 20 mM HEPES pH 7.5, 5 mM MgCl2, 30 mM KCl, 1 mM DTT, 0.5 mM ATP, and an enzyme concentration between 20 nM and 55 nM was applied. […] Then, 10 µl of ADP-Glo reagent was added (depleting remaining ATP and stopping InsP3Kinase enzymatic reaction) and incubated for 20 min at room temperature (RT). […] For luminescent measurement, a TECAN infinite 200 plate reader was used with an integration time of 1000 ms at a temperature of 30°C. For this screen, all measurements were performed in triplicates, three-times using the ADP Glo assay.
Background: In ADP-Glo the light output rises with the ADP produced.

Assay [2] has as its target T1, InsP3Kinase-A. The assay is described as follows: biochemical. On the set-up: gene ITPKA; full-length GST-InsP3Kinase-A. To be noted: ADP-Glo, 5 uM compound, normalized to positive control. The source holds these as a separate data set.
Experimental: For the inhibitor screening, the compounds were diluted in dimethylsulfoxide (DMSO, Sigma), and a final compound concentration of 5 µM was applied to each well. Each measurement was performed in triplicates. […] In each well, there was a final buffer concentration of 20 mM HEPES pH 7.5, 5 mM MgCl2, 30 mM KCl, 1 mM DTT, 0.5 mM ATP, and an enzyme concentration between 20 nM and 55 nM was applied. […] Then, 10 µl of ADP-Glo reagent was added (depleting remaining ATP and stopping InsP3Kinase enzymatic reaction) and incubated for 20 min at room temperature (RT). Next, 10 µl kinase detection reagent (converting remaining ADP to ATP and containing luciferase, which uses ATP as substrate) was added, and incubation was continued for 15 min at RT. For luminescent measurement, a TECAN infinite 200 plate reader was used with an integration time of 1000 ms at a temperature of 30°C. For this screen, all measurements were performed in triplicates, three-times using the ADP Glo assay.
In assay [3] the target is T1, InsP3Kinase-A. Kind of assay: coupled PK/LDH assay with Lineweaver-Burk; thermal shift +[…] °C on wt. Further details: gene ITPKA; full-length, tag-less. In kind it is biochemical.
Assay [4] deals with T2, InsP3Kinase-A (Homo sapiens, UniProt P23677, K264Q).
T2 construct: gene ITPKA; full-length
Kind of assay: activity of purified mutant with and without BIP-[…] to […]). It is filed as biochemical.

From PMC8292763, “Mechanism of BIP-4 mediated inhibition of InsP3Kinase-A” (Bioscience Reports, 2021) come the findings set out here.

T1 sequence (P23677 whole entry): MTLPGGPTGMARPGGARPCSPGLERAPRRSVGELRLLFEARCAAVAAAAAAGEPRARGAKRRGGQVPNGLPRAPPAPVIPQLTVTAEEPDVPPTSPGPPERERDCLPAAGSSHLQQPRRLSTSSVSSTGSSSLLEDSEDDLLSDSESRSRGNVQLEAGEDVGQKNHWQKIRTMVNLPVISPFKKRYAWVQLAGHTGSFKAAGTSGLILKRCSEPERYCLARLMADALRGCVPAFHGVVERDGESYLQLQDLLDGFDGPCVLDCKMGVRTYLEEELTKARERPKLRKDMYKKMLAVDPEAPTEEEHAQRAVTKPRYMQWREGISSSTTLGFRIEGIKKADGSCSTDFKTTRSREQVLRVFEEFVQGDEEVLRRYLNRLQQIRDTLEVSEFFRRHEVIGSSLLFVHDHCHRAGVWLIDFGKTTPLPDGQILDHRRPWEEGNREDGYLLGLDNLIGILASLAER
T2 sequence (P23677 whole entry K264Q): as the sequence (P23677 whole entry) above, with K264Q counted along it

Take `CNS(=O)(=O)c1ccc(N2C(=O)c3cc([N+](=O)[O-])cc4cc([N+](=O)[O-])cc(c34)C2=O)cc1` [compound 31, 31]: the inhibition (as a rule, how much of the control response was suppressed) at 5 µM against InsP3Kinase-A [1] is 33.4%.

As to `Cc1ccc(N2C(=O)c3cc([N+](=O)[O-])cc4cc([N+](=O)[O-])cc(c34)C2=O)c(C)c1` [compound 19, 19], the inhibition at 5 µM on InsP3Kinase-A [1] came out at 36.2%. Same read-out and setting: then `O=C1c2cc([N+](=O)[O-])cc3cc([N+](=O)[O-])cc(c23)C(=O)N1c1ccccc1Cl` [compound 28, 28], with 19.7%. With `O=C1c2cc([N+](=O)[O-])cc3cc([N+](=O)[O-])cc(c23)C(=O)N1c1ccc(Br)cn1` [compound 78, 78], 5 µM produced 1.6% inhibition against InsP3Kinase-A [2]. Turning to `CCN(CC)S(=O)(=O)c1ccc(N2C(=O)c3cc([N+](=O)[O-])cc4cc([N+](=O)[O-])cc(c34)C2=O)cc1` [compound 33, 33], on InsP3Kinase-A [1], the inhibition at 5 µM is 41.6%. In the case of `Cc1nn(-c2ccc([N+](=O)[O-])cc2)c(C)c1N1C(=O)c2cc([N+](=O)[O-])cc3cc([N+](=O)[O-])cc(c23)C1=O` [BIP-4, 2-[3,5-dimethyl-1-(4-nitrophenyl)-1H-pyrazol-4-yl]-5,8-dinitro-1H-benzo[de]isoquinoline-1,3(2H)-dione], the inhibition constant (Ki) (in general, a measure of affinity in units of concentration, obtained from inhibition or displacement) on InsP3Kinase-A [3] was 437 nM. Moreover, the “Enzyme activity + BIP4 in %” value at InsP3Kinase-A [4] is 18.797 % enzyme activity with BIP-4. `CCOc1ccc(N2C(=O)c3cc([N+](=O)[O-])cc4cc([N+](=O)[O-])cc(c34)C2=O)cc1` [compound 27, 27] showed an inhibition at 5 µM against InsP3Kinase-A [1] of 31.4%.
